Source: paper PMC3538728 (PLoS ONE, 2013)
Several values for one entry are separate records, joined by “and”; a condition that tells them apart may be missing. Equal entries are not always repeated. Where two headings read alike, the source gives them in different places.

Biological target: T1, γ-secretase (Homo sapiens, UniProt P49768)
T1 construct: γ-Secretase is composed of four subunits: Aph1, Pen2, glycosylated nicastrin, and endo-proteolyzed presenilin as the catalytic core; endogenous in cells; host or cells: HeLa S3 (ATCC CCL-2.2)
T1 sequence (Q9NZ42 whole entry, other chains not shown): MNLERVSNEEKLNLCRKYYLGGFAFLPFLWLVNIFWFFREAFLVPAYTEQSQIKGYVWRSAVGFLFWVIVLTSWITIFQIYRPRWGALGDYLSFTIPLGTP
T1 sequence (Q92542 34-709, other chains not shown, further chain): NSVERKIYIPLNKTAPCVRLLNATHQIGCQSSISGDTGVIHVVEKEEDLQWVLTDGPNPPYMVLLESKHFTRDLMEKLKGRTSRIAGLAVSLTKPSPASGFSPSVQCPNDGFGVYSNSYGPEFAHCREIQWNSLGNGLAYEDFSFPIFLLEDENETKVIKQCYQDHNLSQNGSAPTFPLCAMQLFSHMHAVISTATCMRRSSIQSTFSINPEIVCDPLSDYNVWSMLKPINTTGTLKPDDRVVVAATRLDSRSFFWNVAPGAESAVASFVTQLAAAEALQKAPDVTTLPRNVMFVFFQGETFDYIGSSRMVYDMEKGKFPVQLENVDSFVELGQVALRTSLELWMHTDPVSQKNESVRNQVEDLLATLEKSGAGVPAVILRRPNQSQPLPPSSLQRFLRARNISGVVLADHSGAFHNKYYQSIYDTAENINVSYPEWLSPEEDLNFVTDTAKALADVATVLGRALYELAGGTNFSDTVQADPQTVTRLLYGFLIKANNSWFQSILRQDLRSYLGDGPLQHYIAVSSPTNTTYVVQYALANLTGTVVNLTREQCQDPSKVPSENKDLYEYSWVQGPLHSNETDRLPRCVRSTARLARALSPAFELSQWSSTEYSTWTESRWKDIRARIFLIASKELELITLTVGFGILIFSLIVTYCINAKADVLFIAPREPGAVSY
T1 sequence (Q96BI3 whole entry, other chains not shown, further chain): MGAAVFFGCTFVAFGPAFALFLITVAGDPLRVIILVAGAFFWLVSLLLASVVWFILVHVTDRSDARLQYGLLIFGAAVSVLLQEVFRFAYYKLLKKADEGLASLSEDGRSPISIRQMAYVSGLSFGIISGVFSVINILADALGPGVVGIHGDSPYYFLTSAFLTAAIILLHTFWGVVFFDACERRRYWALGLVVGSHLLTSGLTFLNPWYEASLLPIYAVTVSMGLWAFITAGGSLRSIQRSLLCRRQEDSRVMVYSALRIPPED
Assay: Aβ 1–40 secretion from HeLa cells in the presence of DAPT (sandwich ELISA), dose-response fits
Format: cell-based
Settings: for EC50: read-out: Activation EC50; for IC50: read-out: Inhibition IC50; for Maximal Activity that can be achieved by transfection (Aβ 1-40 secreted): HeLa transfected with cDNAwtC99
Description: HeLa cells have been transfected using Lipofectamine LTX™ reagent following the manufacturer instructions. The transfection protocol and concentration of pSG5-cDNAwtC99 plasmid have been optimized to achieve desired assay sensitivity, a gradual increase in the substrate expression level, and a smooth transition from biphasic to the standard dose-response curves (Figs. 2–3). Initially concentration of pSG5-cDNAwtC99 plasmid have been optimized by western blots using anti-flag αM2 monoclonal antibody as described in our previous study. The cells were transfected in 24-well plates. The day before transfection the cells were trypsinized and counted. About 0.85×10^5 cells were seeded per well in 0.5 ml of complete growth medium to achieve about 75% confluent cultures on the day of transfection. Before the transfection old medium was removed and replaced with fresh 0.5 ml of complete growth medium. For transfection 5X DNA concentration was diluted in 500 µl of Opti-MEM®I Reduced Serum Media and mixed with 0.7 µl of Lipofectamine LTX™ Reagent. The solution was gently mixed and incubated for 30 minutes at room temperature to form DNA- Lipofectamine LTX™ Reagent complexes. Following the 30 min incubation, 100 µl of the DNA- Lipofectamine LTX™ Reagent complexes was added directly to each well containing cells and mixed gently by rocking the plate back and forth. The cells were incubated at 37°C in a CO2 incubator for 18 hours.
Fresh medium was added 18 hours after the transfection (0.5 ml per well), to prepare the cells for incubation with DAPT [18], [51]. Different concentrations of DAPT were prepared in DMSO, and added to the cells so that the final DMSO concentration in the culture was 0.1% (v/v). DMSO vehicle represents 0 nM DAPT. The cells were incubated with DAPT at given concentrations for 15 hours.
The assay linear response is in the range from 6–125 pM of Aβ 1–40. The assays were performed by closely following the manufacturer instructions. […] Each well was filled with 50 µl of the antibody conjugate solution and 50 µl of sample. The Aβ 1–40 standards were supplied by the manufacturer and prepared in parallel with other samples. All of the prepared wells were wrapped in aluminum foil and incubated overnight at 4°C with gentle mixing. The next day each well was washed five times with 300 µl of wash solution. After each […] wash, the wash solution was poured out and the wells were dried by tapping the plates on an absorbing paper. Washed wells were filled with 100 µl of the enzyme conjugate solution, covered, and incubated for 30 min at room temperature with shaking. The washing procedure was repeated once again to remove excess of the enzyme-conjugate. Next 100 µl of the substrate solution was added in each well in dark, and kept for 30 minutes covered at room temperature. The reaction was quenched by adding 50 µl of stop solution to each well, and within 15 min the signal intensity was read by measuring absorption at 450 nm.
All experimental results were analyzed using MicroCal Origin 7.0 program, nonlinear regressions, and equations that represent specific mechanism. All results are reported as the best fit value ± standard error with two-sigma confidence intervals shown in square brackets (i.e. x±y [p, q]). Briefly, the standard error indicates random errors (i.e. precision) for each method, while the two sigma confidence intervals indicate the ability of given experimental setup to provide information about specific best-fit parameter. The random error for presented experiments is low, as indicated by a low scatter from the best fit values. The sharp confidence intervals can be obtained by taking a large number of independent data points that cover all segments that define the measured functions. […]

[1] = Aβ 1-40 secreted, untransfected HeLa cells, eqn. 1, six free fit parameters
[2] = Aβ 1-40 secretion, untransfected HeLa cells, eqn. 1, six free fit parameters
[3] = HeLa, 0 ng/mL pSG5-cDNAwtC99, eqn. 1
[4] = HeLa, 15 ng/mL pSG5-cDNAwtC99, eqn. 1
[5] = HeLa, 25 ng/mL pSG5-cDNAwtC99, eqn. 1
[6] = HeLa, 61 ng/mL pSG5-cDNAwtC99, eqn. 1
[7] = HeLa, 92 ng/mL pSG5-cDNAwtC99, eqn. 1

With `C[C@H](NC(=O)Cc1cc(F)cc(F)c1)C(=O)N[C@H](C(=O)OC(C)(C)C)c1ccccc1` [DAPT, N-[N-(3,5-difluorophenacetyl)-L-alanyl]-S-phenylglycine t-butyl ester] the “Endogenous activity as percentage of maximal activity achieved by transfection” value (“Endogenous activity as percentage” for short) (33 nM DAPT) was 40% and 39.7%, the “cDNAwtC99 required to reach maximal activity” value (“cDNAwtC99 required” below) (33 nM DAPT) was 192 ng/mL and 191.0 ng/mL and the “Endogenous activity as percentage” value (100 nM DAPT) was 72% and 72.5%. For the same compound, the “cDNAwtC99 required” value (100 nM DAPT) was 92.7 ng/mL, the “Endogenous activity as percentage” value (333 nM DAPT) was 92.1% and the “cDNAwtC99 required” value (333 nM DAPT) was 59.8 ng/mL. For the same compound, the “Endogenous activity as percentage” value (500 nM DAPT) was 89.3%, the “cDNAwtC99 required” value (500 nM DAPT) was 39.2 ng/mL and the “Endogenous activity as percentage” value (1000 nM DAPT) was 96.2%. The “cDNAwtC99 required” value (1000 nM DAPT) was 14.0 ng/mL, the “Initial Activity, IA” value (Aβ 1-40 secreted, untransfected HeLa cells, endogenous substrate, activity at inhibitor concentration zero, eqn. 1, six free fit parameters) was 31 ± 4 pM per 10^6 cells and the “Maximal Activity (MA), calculated activation plateau” value [1] was 196 pM per 10^6 cells and 196 ± 80 pM per 10^6 cells. For the same compound, the “Maximal Inhibition, MI” value [1] was 0.5 ± -3.4 pM per 10^6 cells, the EC50 [2] was 72 ± 20 nM and the IC50 [2] was 472 ± 95 nM. For the same compound, the “Maximal Activity that can be achieved by transfection (Aβ 1-40 secreted)” value (“Maximal Activity that can be achieved” below) (33 nM DAPT) was 204.5 pM per 10^6 cells, the “Maximal Activity that can be achieved” value (100 nM DAPT) was 182 pM per 10^6 cells and 182.0 pM per 10^6 cells and the “Maximal Activity that can be achieved” value (333 nM DAPT) was 140.0 pM per 10^6 cells. For the same compound, the “Maximal Activity that can be achieved” value (500 nM DAPT) was 125.0 pM per 10^6 cells, the “Maximal Activity that can be achieved” value (1000 nM DAPT) was 44.7 pM per 10^6 cells and the “Activation Hill coef.” value [3] was 1.04 ± 0.2. The “Inhibition Hill's coef” value [3] was 2 ± 0.3, the “Maximal Activity, MA” value [3] was 217 ± 110 pM per 10^6 cells and the “Maximal Inhibition, MI” value [3] was -1 ± 0.1 pM per 10^6 cells. For the same compound, the “Initial Activity, IA” value (HeLa, 0 ng/mL pSG5-cDNAwtC99, eqn. 1, activity at zero DAPT) was 32 ± 3 pM per 10^6 cells, the EC50 [3] was 89 ± 17 nM and the IC50 [3] was 407 ± 34 nM. The “Activation Hill coef.” value [4] was 1.08 ± 0.2, the “Inhibition Hill's coef” value [4] was 2.4 ± 0.3 and the “Maximal Activity, MA” value [4] was 172 ± 90 pM per 10^6 cells. The “Maximal Inhibition, MI” value [4] was 0.33 ± 0.7 pM per 10^6 cells, the “Initial Activity, IA” value (HeLa, 15 ng/mL pSG5-cDNAwtC99, eqn. 1, activity at zero DAPT) was 41 ± 3 pM per 10^6 cells and the EC50 [4] was 71 ± 21 nM. The IC50 [4] was 588 ± 35 nM, the “Activation Hill coef.” value [5] was 1.0 ± 0.1 and the “Inhibition Hill's coef” value [5] was 2.2 ± 0.4. The “Maximal Activity, MA” value [5] was 205 ± 80 pM per 10^6 cells, the “Maximal Inhibition, MI” value [5] was -0.2 ± 0.1 pM per 10^6 cells and the “Initial Activity, IA” value (HeLa, 25 ng/mL pSG5-cDNAwtC99, eqn. 1, activity at zero DAPT) was 51 ± 5 pM per 10^6 cells. The EC50 [5] was 110 ± 34 nM, the IC50 [5] was 524 ± 71 nM and the “Activation Hill coef.” value [6] was 1.13 ± 0.6. For the same compound, the “Inhibition Hill's coef” value [6] was 2.3 ± 0.5, the “Maximal Activity, MA” value [6] was 180 ± 145 pM per 10^6 cells and the “Maximal Inhibition, MI” value [6] was 1.2 ± 0.2 pM per 10^6 cells. The “Initial Activity, IA” value (HeLa, 61 ng/mL pSG5-cDNAwtC99, eqn. 1, activity at zero DAPT) was 91 ± 6 pM per 10^6 cells, the EC50 [6] was 107 ± 36 nM and the IC50 [6] was 489 ± 62 nM. The “Activation Hill coef.” value [7] was 0.92 ± 0.3, the “Inhibition Hill's coef” value [7] was 1.7 ± 0.6 and the “Maximal Activity, MA” value [7] was 170 ± 95 pM per 10^6 cells.
